Reference: US20240262801A1, “COMPOUNDS HAVING 5-(2-FLUORO-6-HYDROXYPHENYL)-1,2,5-THIADIAZOLIDIN-3-ONE 1,1-DIOXIDE AS INHIBITORS OF PROTEIN KINASE PHOSPHATASE ENZYMES” (Ness Therapeutics, Inc., priority 2021, published 2024)
Read-outs that look alike come from different tables or passages of the source.

How the values were obtained:
GST-tagged PTPN2 protein = molecular target: T1, GST-tagged PTPN2 protein (Homo sapiens, UniProt P17706); test: Primary assay of PTPN2 enzymatic activity inhibition (DiFMUP fluorescence); assay type: biochemical; settings: DiFMUP substrate 2 μM, 60 min at RT
T1 construct: purchased ActiveMotif 31592
T1 sequence (P17706 with tags, fused parts or gaps): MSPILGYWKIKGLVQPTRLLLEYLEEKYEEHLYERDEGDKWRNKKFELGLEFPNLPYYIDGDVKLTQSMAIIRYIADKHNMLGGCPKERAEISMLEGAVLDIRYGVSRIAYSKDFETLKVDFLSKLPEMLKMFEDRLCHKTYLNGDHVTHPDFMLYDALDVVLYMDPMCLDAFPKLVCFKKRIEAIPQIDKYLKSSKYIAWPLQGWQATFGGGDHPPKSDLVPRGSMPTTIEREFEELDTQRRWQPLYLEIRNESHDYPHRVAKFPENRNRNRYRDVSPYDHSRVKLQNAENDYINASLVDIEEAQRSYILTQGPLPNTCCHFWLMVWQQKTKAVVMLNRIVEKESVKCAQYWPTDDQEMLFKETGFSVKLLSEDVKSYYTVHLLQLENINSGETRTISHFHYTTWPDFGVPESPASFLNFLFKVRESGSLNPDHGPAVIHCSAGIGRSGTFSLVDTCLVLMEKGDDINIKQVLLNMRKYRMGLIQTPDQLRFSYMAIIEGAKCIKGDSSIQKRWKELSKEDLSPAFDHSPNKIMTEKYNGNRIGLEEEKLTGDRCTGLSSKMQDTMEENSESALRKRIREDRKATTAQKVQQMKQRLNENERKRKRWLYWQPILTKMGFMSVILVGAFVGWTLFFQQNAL
Protocol: Compound activity was determined using GST-tagged PTPN2 protein (Cat #31592, ActiveMotif) (SEQ ID NO: 1) in an in vitro enzymatic reaction. The enzymatic reaction was carried out in assay buffer (50 mM HEPES Na salt pH 7.2-7.4, 2 mM EDTA, 100 mM NaCl, 52 ng/μL BSA, and 6 mM DTT). The compounds were dispensed on a 384 well Diamond Well Plate (Axigen, Cat #P-384-120SQ-C-S) using the Biomek FX liquid handling system at 100× solutions of compounds in DMSO. 2× PTPN2 (final concentration 0.004 ng/μL) was prepared in 1× Assay buffer and 25 μL of mixture per well was added into Reaction plate (Optiplate, black, Perkin Elmer, Cat #6007270). Add 25 μL of 1× buffer to Ctrl- (Substrate w/o PTPN2) wells followed by centrifugation at 100 g for 1 min. Next step the Compounds were added to Reaction plate using Biomek station via following steps: 3 ul of 100× compounds (in DMSO) were mixed with 27 μL of Assay Buffer, then 5 μL of this mixture was added to Reaction plate with 25 μL of PTPN2 Mix. Plates were centrifuged for 1 min at 100 g and incubated for another 10 minutes at room temperature. Finally, 20 μL of 2.5× Substrate (DiFUMP, Invitrogen™ Cat #D6567) mix was added into appropriate wells of Reaction plate to the final concentration of 2 μM, plate was centrifuged at 100 g for 1 min followed by incubation at RT for 60 min, and the Fluorescence Intensity was measured using a Microplate Reader (ClarioStar Plus, excitation 360 nm, emission 450 nm). The % inhibition was then used to calculate the IC50 values. The IC50 values are shown in Table A1, wherein “A” corresponds to IC50<5.0 nm, “B” corresponds to 5.0 nm≤IC50<10.0 nm, “C” corresponds to 10.0 nm≤IC50<50.0 nm, “D” corresponds to 50.0 nm≤IC50<100.0 nm, and “E” corresponds to 100.0 nm≤IC50<500.0 nm, and “F” corresponds to 500.0 nm≤IC50.

[1] = tested on: B16F10 mouse melanoma cells; test: Tumor cells B16F10 cellular growth IFNγ-induced inhibition assay (CellTiter-Glo); assay type: cell-based; settings: for IC50: B16-F10, 72 h, 3 days incubation; for inhibition at 100 µM: B16-F10, B16F10, 100 μM compound
Protocol: B16F10 mouse melanoma cells (ATCC Cat #CRL-6475) were seeded at a density of 500 cells per well in a 384-well clear bottom plate (Corning Cat #3712, Corning, N.Y.) in 40 μL total volume of DMEM+10% FBS (PanEco Cat #C420, Russia and Sigma Cat #F4135, St. Louis, Mo.). Cells were allowed to adhere overnight at 37° C., 5% CO2. On the following day, 250× solutions of compounds in DMSO (Sigma Cat #D2650) were prepared into […] plate (Diamond Well Plate, Axigen, Cat #P-384-120SQ-C-S) (final concentration of 1×) and DMSO only controls were included. Dilution Plate (Diamond Well Plate (Axigen, Cat #P-384-120SQ-C-S) was prepared by adding 49 μL of culture medium per well: half of the plate with culture medium only, half with culture medium+IFNγ (5 ng/ml). A 1 μL aliquot of 250× compounds ([…] plate) was added to 49 μL of culture medium (Dilution plate), then a 10 μL aliqut of the mixture was transferred to Reaction plate with 40 μL of cells followed by centrifugation at 240 g for 1 min. After 3 days of incubation, 10 μL of CellTiter-Glo (Promega) was added to the cells, plates were centrifuged at 240 g for 1 min, and luminescence signal was measured. For each compound, the percent growth inhibition at every compound dose level was calculated relative to the “DMSO/with IFNγ” control and used to determine the IC50.

[2] = B16F10, + IFNγ, read-out: IC50 + IFNγ
[3] = B16F10, no IFNγ, read-out: IC50 no IFNγ
[4] = + IFNγ, read-out: % Growth Inhibition at 100 μM + IFNγ
[5] = no IFNγ, read-out: % Growth Inhibition at 100 μM no IFNγ

Structure (SMILES) | IC50 (GST-tagged PTPN2 protein) | IC50 [1, 2] | IC50 [1, 3] | inhibition at 100 µM [1, 4] | inhibition at 100 µM [1, 5]
O=C1CN(c2c(O)cc(-c3cccc(NC4CCN(S(=O)(=O)Cc5ccccc5Cl)CC4)c3)cc2F)S(=O)(=O)N1 [Example 11, 5-[3′-({1-[(2-chlorobenzyl)sulfonyl]piperidin-4-yl}amino)-3-fluoro-5-hydroxybiphenyl-4-yl]-1,2,5-thiadiazolidin-3-one 1,1-dioxide] | 0.1 to 0.5 µM | 50 to 100 µM | ≥ 100 µM | 50 to 75% | 10 to 50%
COc1ccc(C(=O)Nc2cc(O)c(N3CC(=O)NS3(=O)=O)c(F)c2)cc1OC [Example 14, N-[4-(1,1-dioxido-4-oxo-1,2,5-thiadiazolidin-2-yl)-3-fluoro-5-hydroxyphenyl]-3,4-dimethoxybenzamide] | 0.1 to 0.5 µM | 10 to 50 µM | ≥ 100 µM | 50 to 75% | 10 to 50%
O=C1CN(c2c(O)cc(NC(=O)Nc3cccc(Cl)c3)cc2F)S(=O)(=O)N1 [Example 46, 1-(3-chlorophenyl)-3-[4-(1,1-dioxido-4-oxo-1,2,5-thiadiazolidin-2-yl)-3-fluoro-5-hydroxyphenyl]urea] | < 0.005 µM | ≥ 100 µM | ≥ 100 µM | 10 to 50% | 10 to 50%
Cc1cccc(S(=O)(=O)Nc2cc(O)c(N3CC(=O)NS3(=O)=O)c(F)c2)c1 [Example 22, N-[4-(1,1-dioxido-4-oxo-1,2,5-thiadiazolidin-2-yl)-3-fluoro-5-hydroxyphenyl]-3-methylbenzenesulfonamide] | 0.01 to 0.05 µM | 10 to 50 µM | ≥ 100 µM | 50 to 75% | 10 to 50%
Cc1ccccc1S(=O)(=O)Nc1cc(O)c(N2CC(=O)NS2(=O)=O)c(F)c1 [Example 23, N-[4-(1,1-dioxido-4-oxo-1,2,5-thiadiazolidin-2-yl)-3-fluoro-5-hydroxyphenyl]-2-methylbenzenesulfonamide] | 0.05 to 0.1 µM | 50 to 100 µM | ≥ 100 µM | 50 to 75% | 10 to 50%
COc1ccc(S(=O)(=O)Nc2cc(O)c(N3CC(=O)NS3(=O)=O)c(F)c2)cc1OC [Example 26, N-[4-(1,1-dioxido-4-oxo-1,2,5-thiadiazolidin-2-yl)-3-fluoro-5-hydroxyphenyl]-3,4-dimethoxybenzenesulfonamide] | 0.01 to 0.05 µM | 10 to 50 µM | ≥ 100 µM | 50 to 75% | 10 to 50%
O=C1CN(c2c(O)cc(NS(=O)(=O)c3ccccc3F)cc2F)S(=O)(=O)N1 [Example 21, N-[4-(1,1-dioxido-4-oxo-1,2,5-thiadiazolidin-2-yl)-3-fluoro-5-hydroxyphenyl]-2-fluorobenzenesulfonamide] | 0.1 to 0.5 µM | 10 to 50 µM | ≥ 100 µM | 50 to 75% | 10 to 50%
O=C1CN(c2c(O)cc(NC(=O)Nc3ccccc3Cl)cc2F)S(=O)(=O)N1 [Example 48, 1-(2-chlorophenyl)-3-[4-(1,1-dioxido-4-oxo-1,2,5-thiadiazolidin-2-yl)-3-fluoro-5-hydroxyphenyl]urea] | 0.005 to 0.01 µM | ≥ 100 µM | ≥ 100 µM | 10 to 50% | 10 to 50%
COCCCNC(=O)Nc1cc(O)c(N2CC(=O)NS2(=O)=O)c(F)c1 [Example 58, 1-[4-(1,1-dioxido-4-oxo-1,2,5-thiadiazolidin-2-yl)-3-fluoro-5-hydroxyphenyl]-3-(3-methoxypropyl)urea] | 0.01 to 0.05 µM | 5 to 10 µM | ≥ 100 µM | 75 to 100% | 10 to 50%
O=C1CN(c2c(O)cc(NC(=O)NC3CCN(S(=O)(=O)Cc4ccccc4Cl)CC3)cc2F)S(=O)(=O)N1 [Example 45, 1-{1-[(2-chlorobenzyl)sulfonyl]piperidin-4-yl}-3-[4-(1,1-dioxido-4-oxo-1,2,5-thiadiazolidin-2-yl)-3-fluoro-5-hydroxyphenyl]urea] | 0.005 to 0.01 µM | ≥ 100 µM | ≥ 100 µM | 10 to 50% | 10 to 50%

Further lines, with some results ahead:

IC50 (GST-tagged PTPN2 protein) | IC50 [1, 2] | IC50 [1, 3] | Structure (SMILES) | inhibition at 100 µM [1, 4] | inhibition at 100 µM [1, 5]
0.005 to 0.01 µM | < 5 µM | ≥ 100 µM | O=C1CN(c2c(O)cc(NC(=O)N[C@H](CO)c3ccccc3)cc2F)S(=O)(=O)N1 [Example 103, 1-[3-fluoro-5-hydroxy-4-(1,1,4-trioxo-1,2,5-thiadiazolidin-2-yl)phenyl]-3-[(1S)-2-hydroxy-1-phenylethyl]urea] | 75 to 100% | 10 to 50%
< 0.005 µM | 10 to 50 µM | ≥ 100 µM | O=C1CN(c2c(O)cc(NC(=O)NC34CC(CO)(C3)C4)cc2F)S(=O)(=O)N1 [Example 111, 1-[3-fluoro-5-hydroxy-4-(1,1,4-trioxo-1,2,5-thiadiazolidin-2-yl)phenyl]-3-[3-(hydroxymethyl)-1-bicyclo[1.1.1]pentanyl]urea] | 75 to 100% | 10 to 50%
0.005 to 0.01 µM | ≥ 100 µM | ≥ 100 µM | CC(C)CCN1CC(CNC(=O)Nc2cc(O)c(N3CC(=O)NS3(=O)=O)c(F)c2)C2(CCCCC2)C1 (stereo not shown) [Example 102, 1-[3-fluoro-5-hydroxy-4-(1,1,4-trioxo-1,2,5-thiadiazolidin-2-yl)phenyl]-3-[(2-isopentyl-2-azaspiro[4.5]decan-4-yl)methyl]urea] | 10 to 50% | 10 to 50%
0.01 to 0.05 µM | 10 to 50 µM | ≥ 100 µM | O=C1CN(c2c(O)cc(NC(=O)N[C@@H]3c4ccccc4C[C@@H]3O)cc2F)S(=O)(=O)N1 [Example 108, 1-[3-fluoro-5-hydroxy-4-(1,1,4-trioxo-1,2,5-thiadiazolidin-2-yl)phenyl]-3-[(1R,2S)-2-hydroxyindan-1-yl]urea] | 50 to 75% | 10 to 50%
< 0.005 µM | 50 to 100 µM | ≥ 100 µM | CC(C)CNC(=O)C12CC(NC(=O)Nc3cc(O)c(N4CC(=O)NS4(=O)=O)c(F)c3)(C1)C2 [Example 112, 3-[[3-fluoro-5-hydroxy-4-(1,1,4-trioxo-1,2,5-thiadiazolidin-2-yl)phenyl]carbamoylamino]-N-isobutyl-bicyclo[1.1.1]pentane-1-carboxamide] | 10 to 50% | 10 to 50%
< 0.005 µM | 10 to 50 µM | ≥ 100 µM | O=C1CN(c2c(O)cc(NC(=O)N[C@H](CO)Cc3ccccc3)cc2F)S(=O)(=O)N1 [Example 109, 1-[(1S)-1-benzyl-2-hydroxy-ethyl]-3-[3-fluoro-5-hydroxy-4-(1,1,4-trioxo-1,2,5-thiadiazolidin-2-yl)phenyl]urea] | 50 to 75% | 10 to 50%
< 0.005 µM | 5 to 10 µM | ≥ 100 µM | O=C1CN(c2c(O)cc(NC(=O)NC3CCCCC3O)cc2F)S(=O)(=O)N1 (stereo not shown) [Example 105, 1-[3-fluoro-5-hydroxy-4-(1,1,4-trioxo-1,2,5-thiadiazolidin-2-yl)phenyl]-3-(2-hydroxycyclohexyl)urea] | 75 to 100% | 10 to 50%
